How the values were obtained:
SHV-5 = molecular target: T1, SHV-5 (Klebsiella pneumoniae, UniProt P0A3M1); assay: β-lactamase enzyme inhibition assay, SHV-5 (cefotaxime substrate); type: biochemical
T1 construct: made in house; host or cells: E. coli BL21(DE3)
Procedure, shortened: (§1)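 Untagged enzyme from E. coli BL21(DE3), purified by Capto S then Superdex 75; 15 min 37 °C preincubation with inhibitor; KPC-2 read with imipenem at 300 nm, SHV-5 with cefotaxime at 260 nm, OXA-1 with nitrocefin 100 μM final at 486 nm; 10 min kinetic read; IC50 vs uninhibited wells.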

KPC-2 = molecular target: T2, KPC-2 (Klebsiella pneumoniae, UniProt Q9F663); assay: β-lactamase enzyme inhibition assay, KPC-2 (imipenem substrate); type: biochemical; settings: Class A; imipenem substrate, 300 nm; read-out: KPC-2
T2 construct: made in house; host or cells: E. coli BL21(DE3)
T2 sequence (Q9F663 25-293, looked up): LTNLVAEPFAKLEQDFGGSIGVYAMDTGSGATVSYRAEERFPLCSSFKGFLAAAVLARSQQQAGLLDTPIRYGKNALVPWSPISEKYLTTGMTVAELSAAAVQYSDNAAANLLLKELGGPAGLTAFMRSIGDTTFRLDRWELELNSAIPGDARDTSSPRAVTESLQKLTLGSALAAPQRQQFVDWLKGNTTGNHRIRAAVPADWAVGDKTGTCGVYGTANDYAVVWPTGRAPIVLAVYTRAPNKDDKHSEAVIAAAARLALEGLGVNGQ
Procedure, shortened: as §1

VIM-2 = molecular target: T3, VIM-2 (Escherichia coli, UniProt Q5U7L7); assay: β-lactamase enzyme inhibition assay, VIM-2 (nitrocefin substrate); type: biochemical; settings: Class B; nitrocefin substrate, 486 nm; read-out: VIM-2
T3 construct: made in house; host or cells: E. coli BL21(DE3)
Procedure, shortened: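 Enzyme + inhibitor, 37 °C, 15 min; nitrocefin 100 μM final; A486 read for 10 min. % inhibition vs no-inhibitor wells per concentration; IC50 = concentration halving initial hydrolysis rate.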

AmpC = molecular target: T4, AmpC (Enterobacter cloacae, UniProt P05364); assay: β-lactamase enzyme inhibition assay, p99 AmpC (nitrocefin substrate); type: biochemical
T4 construct: made in house; host or cells: E. coli BL21(DE3)
T4 sequence (P05364 21-381): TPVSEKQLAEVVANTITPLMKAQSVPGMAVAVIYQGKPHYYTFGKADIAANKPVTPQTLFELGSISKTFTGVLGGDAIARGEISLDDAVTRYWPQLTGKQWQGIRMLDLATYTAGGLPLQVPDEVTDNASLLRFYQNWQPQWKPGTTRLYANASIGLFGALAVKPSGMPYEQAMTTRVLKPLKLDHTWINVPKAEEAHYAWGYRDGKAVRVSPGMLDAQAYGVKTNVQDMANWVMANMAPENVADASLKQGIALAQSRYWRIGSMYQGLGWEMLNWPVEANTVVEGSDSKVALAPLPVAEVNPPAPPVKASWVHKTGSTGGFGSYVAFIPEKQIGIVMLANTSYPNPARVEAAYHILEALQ
Procedure, shortened: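 Untagged enzyme from E. coli BL21(DE3), purified by Capto S then Superdex 75; 15 min 37 °C preincubation with inhibitor; 10 min kinetic read; IC50 vs uninhibited wells.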

OXA-48 = OXA-48 (UniProt Q6XEC0); assay: β-lactamase enzyme inhibition assay, Class D oxacillinase; type: biochemical; settings: read-out: OXA-48
[1] = tested on: E. coli expressing the Class A Extended Spectrum Beta-Lactamase (ESBL) CTX-M-15; assay: Broth microdilution MIC assay with ceftazidime, E. coli CTX-M-15; type: cell-based; settings: Fixed CAZ (ceftazidime) 4 μg/mL; E. coli ESBL4 CTX-M-15
Procedure, shortened: (§2)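 CAMHB; cpd 2-fold serial dilution, 16–0.125 μg/mL final; β-lactam static 4 μg/ml; CLSI inoculation; 16–20 h, 37° C; MIC read by eye.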

[2] = tested on: E. cloacae expressing the Class C P99; assay: Broth microdilution MIC assay with ceftazidime, E. cloacae P99; type: cell-based; settings: Fixed CAZ (ceftazidime) 4 μg/mL; E. cl. 144200 p99 AmpC
Excerpt: To determine the ability of test compounds to potentiate the inhibition of the growth of bacterial strains that produce beta-lactamase enzymes in the presence of a β-lactam antibiotic, classic cell based broth microdilution MIC assays were employed. Six bacteria strains producing beta-lactamase enzymes were used: E. coli expressing the Class A Extended Spectrum Beta-Lactamase (ESBL) CTX-M-15, E. cloacae expressing the Class C P99, K. pneumoniae expressing the Class A carbapenemase KPC-2, P. aeruginosa expressing the Class B carbapenemase VIM-2, K. pneumoniae expressing the class A carbapenemase KPC-2 and the class B carbapenemase VIM-4, and K. pneumoniae producing the Class D carbapenemase OXA-48. The assay was conducted in Cation Adjusted Mueller Hinton Broth (CAMHB, BD #212322, BD Diagnostic Systems, Sparks, Md.). Bacteria strains were grown for 3-5 hours in CAMBH broth. Test compounds (Examples 1-94) were added to a microtiter plate in 2-fold serial dilutions in CAMHB in a final concentration range of 16 μg/mL to 0.125 μg/ml. An overlay of CAMHB containing a Beta-lactam was added to the compounds at a final static concentration of 4 μg/ml. […] In addition to the titration of test compounds the MICs of a panel of control beta-lactams is also tested to ensure the strains are behaving consistently from test to test. Once the test compound and antibiotics are added the plates can be inoculated according to CLSI broth microdilution method. After inoculation the plates are incubated for 16-20 hours at 37° C. then the Minimal Inhibitory Concentration (MIC) of the test compound is determined visually.
Using the methodology described above, examples of the current invention were evaluated for their ability to inhibit the growth of β-lactamase-producing bacteria in the presence of a β-lactam antibiotic.

[3] = tested on: K. pneumoniae expressing the Class A carbapenemase KPC-2; assay: Broth microdilution MIC assay with meropenem, K. pneumoniae KPC-2; type: cell-based; settings: Fixed Mero (meropenem) 4 μg/mL; K. p. 156319 KPC-3
Procedure, shortened: as §2

[4] = tested on: P. aeruginosa expressing the Class B carbapenemase VIM-2; assay: Broth microdilution MIC assay with meropenem, P. aeruginosa VIM-2; type: cell-based; settings: Fixed Mero (meropenem) 4 μg/mL; P. aerug. 2775 VIM-2
Procedure, shortened: as §2

[5] = tested on: K. pneumoniae expressing the class A carbapenemase KPC-2 and the class B carbapenemase VIM-4; assay: Broth microdilution MIC assay with meropenem, K. pneumoniae KPC-2 and VIM-4; type: cell-based; settings: Fixed Mero (meropenem) 4 μg/mL; K. p. A-1797 KPC-2 VIM-4
Procedure, shortened: as §2

[6] = tested on: K. pneumoniae producing the Class D carbapenemase OXA-48; assay: Broth microdilution MIC assay with meropenem, K. pneumoniae OXA-48; type: cell-based; settings: Fixed Mero (meropenem) 4 μg/mL; K. p. 11978 OXA-48
Procedure, shortened: as §2

T1 sequence (P0A3M1 22-286): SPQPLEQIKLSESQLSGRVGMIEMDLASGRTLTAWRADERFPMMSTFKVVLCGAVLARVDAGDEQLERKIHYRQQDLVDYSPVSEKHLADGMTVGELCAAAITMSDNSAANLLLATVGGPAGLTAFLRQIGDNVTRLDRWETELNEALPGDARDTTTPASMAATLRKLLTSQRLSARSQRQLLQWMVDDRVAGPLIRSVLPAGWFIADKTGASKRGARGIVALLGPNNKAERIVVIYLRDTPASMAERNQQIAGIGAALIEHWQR

| SMILES | IC50 (SHV-5) | IC50 (KPC-2) | IC50 (VIM-2) | IC50 (AmpC) | IC50 (OXA-48) | MIC (μg/mL) of Exemplary Compounds in presence of fixed β-lactams: E. coli ESBL4 CTX-M-15 [1] | MIC (μg/mL) of Exemplary Compounds in presence of fixed β-lactams: E. cl. 144200 p99 AmpC [2] | MIC (μg/mL) of Exemplary Compounds in presence of fixed β-lactams: K. p. 156319 KPC-3 [3] | MIC (μg/mL) of Exemplary Compounds in presence of fixed β-lactams: P. aerug. 2775 VIM-2 [4] | MIC (μg/mL) of Exemplary Compounds in presence of fixed β-lactams: K. p. A-1797 KPC-2 VIM-4 [5] | MIC (μg/mL) of Exemplary Compounds in presence of fixed β-lactams: K. p. 11978 OXA-48 [6] |
| --- | --- | --- | --- | --- | --- | --- | --- | --- | --- | --- | --- |
| O=C(Cn1nnc(C(=O)O)c1C(=O)O)N[C@H]1Cc2cccc(C(=O)O)c2OB1O [Example 16, (R)-1-(2-((8-carboxy-2-hydroxy-3,4-dihydro-2H-benzo[e][1,2]oxaborinin-3-yl)amino)-2-oxoethyl)-1H-1,2,3-triazole-4,5-dicarboxylic acid] | < 100 nM | < 100 nM | 1000 to 10000 nM | < 100 nM | < 100 nM | B (B represents an MIC between 1 and 16 μg/mL inclusive) | C (C represents an MIC of <1 μg/mL) | B (B represents an MIC between 1 and 16 μg/mL inclusive) | B (B represents an MIC between 1 and 16 μg/mL inclusive) | B (B represents an MIC between 1 and 16 μg/mL inclusive) | B (B represents an MIC between 1 and 16 μg/mL inclusive) |
| NCc1nc(CC(=O)N[C@H]2Cc3cccc(C(=O)O)c3OB2O)cs1 [Example 19, (R)-3-(2-(2-(aminomethyl)thiazol-4-yl)acetamido)-2-hydroxy-3,4-dihydro-2H-benzo[e][1,2]oxaborinine-8-carboxylic acid] | < 100 nM | < 100 nM | 100 to 1000 nM | < 100 nM | < 100 nM | C (C represents an MIC of <1 μg/mL) | C (C represents an MIC of <1 μg/mL) | B (B represents an MIC between 1 and 16 μg/mL inclusive) | C (C represents an MIC of <1 μg/mL) | B (B represents an MIC between 1 and 16 μg/mL inclusive) | B (B represents an MIC between 1 and 16 μg/mL inclusive) |
| Nc1nnc(CC(=O)N[C@H]2Cc3cccc(C(=O)O)c3OB2O)[nH]1 [Example 20, (R)-3-(2-(5-amino-4H-1,2,4-triazol-3-yl)acetamido)-2-hydroxy-3,4-dihydro-2H-benzo[e][1,2]oxaborinine-8-carboxylic acid] | < 100 nM | < 100 nM | 100 to 1000 nM | 100 to 1000 nM | 100 to 1000 nM | C (C represents an MIC of <1 μg/mL) | C (C represents an MIC of <1 μg/mL) | B (B represents an MIC between 1 and 16 μg/mL inclusive) | B (B represents an MIC between 1 and 16 μg/mL inclusive) | B (B represents an MIC between 1 and 16 μg/mL inclusive) | B (B represents an MIC between 1 and 16 μg/mL inclusive) |
